According to publication PMC12751012, “Nanoscale Direct-to-Biology Optimization and Structural Insights into Selective S. aureus TrmD Inhibitors” (Journal of Medicinal Chemistry, 2025):

target: T1, S. aureus TrmD (Staphylococcus aureus, UniProt Q2FZ43); assay: nanoSAR direct-to-biology FP displacement screening of crude triazoles; format: binding; conditions: crude triazole at 1 μM, assuming full conversion; 500 nM TrmD, 10 nM tracer 4
T1 construct: made in house; host or cells: E. coli BL21
T1 sequence (Q2FZ43 1-245): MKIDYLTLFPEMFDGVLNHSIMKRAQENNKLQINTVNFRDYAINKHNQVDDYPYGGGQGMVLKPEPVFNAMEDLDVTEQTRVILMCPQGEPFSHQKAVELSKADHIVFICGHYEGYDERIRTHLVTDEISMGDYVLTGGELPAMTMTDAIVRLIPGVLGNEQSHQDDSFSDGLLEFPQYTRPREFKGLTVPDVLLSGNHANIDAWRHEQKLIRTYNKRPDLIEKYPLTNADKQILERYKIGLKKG
In short: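 Crude CuAAC triazoles from alkyne 7 and 320 diverse azides were screened by FP displacement of 10 nM tracer 4 from 500 nM S. aureus TrmD. Buffer was 40 mM Tris HCl, 100 mM NaCl, 10 mM MgCl2, 5% glycerol, pH 7.5.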

SMILES | % displaced tracer
C[C@H](N)Cn1cc(-c2c[nH]c3nc[nH]c(=O)c23)nn1 [Compound 02F09, O=C1NC=NC2=C1C(C3=CN(C[C@@H](N)C)N=N3)=CN2] | 26%

same assay, conditions: crude triazole at 1 μM, assuming full conversion; 500 nM TrmD, 10 nM tracer 4; read-out: % displaced tracer

SMILES | inhibition at 1 µM
O=c1[nH]cnc2[nH]cc(-c3cn(Cc4ccc(-n5cccn5)cc4)nn3)c12 [Compound 02E09, O=C1NC=NC=2NC=C(C=3N=NN(C3)Cc4ccc(N5N=CC=C5)cc4)C12] | 62%
CC(C)(C)OC(=O)NC[C@@]1(Cn2cc(-c3c[nH]c4nc[nH]c(=O)c34)nn2)CC12CCC2 [Compound 02E10, O=C(OC(C)(C)C)NC[C@@]1(C2(C1)CCC2)CN3N=NC(C=4C=5C(=O)NC=NC5NC4)=C3] | 23%
C[C@@H](C(=O)N1CCCC1)n1cc(-c2c[nH]c3nc[nH]c(=O)c23)nn1 [Compound 02E11, O=C1NC=NC=2NC=C(C=3N=NN(C3)[C@H](C(=O)N4CCCC4)C)C12] | 20%
O=C(c1ncon1)n1cc(-c2c[nH]c3nc[nH]c(=O)c23)nn1 [Compound 02E12, O=C(N1N=NC(C=2C=3C(=O)NC=NC3NC2)=C1)C4=NOC=N4] | 1.83%
CC(C)(C)O[C@H]1C[C@@H](n2cc(-c3c[nH]c4nc[nH]c(=O)c34)nn2)C1 [Compound 02F01, O=C1NC=NC=2NC=C(C=3N=NN(C3)[C@@H]4C[C@H](OC(C)(C)C)C4)C12] | 21%
O=C(Cn1cc(-c2c[nH]c3nc[nH]c(=O)c23)nn1)N1CCCCC1 [Compound 02F02, O=C1NC=NC=2NC=C(C=3N=NN(C3)CC(=O)N4CCCCC4)C12] | 32%
O=c1[nH]cnc2[nH]cc(-c3cn(-c4ccccc4Cl)nn3)c12 [Compound 02F03, Clc1c(N2N=NC(C=3C=4C(=O)NC=NC4NC3)=C2)cccc1] | 22%
O=C1NC[C@@H](Cn2cc(-c3c[nH]c4nc[nH]c(=O)c34)nn2)O1 [Compound 02F04, O=C1O[C@H](CN2N=NC(C=3C=4C(=O)NC=NC4NC3)=C2)CN1] | 45%
COC(=O)c1cncc(-n2cc(-c3c[nH]c4nc[nH]c(=O)c34)nn2)c1 [Compound 02F05, O=C(OC)c1cncc(N2N=NC(C=3C=4C(=O)NC=NC4NC3)=C2)c1] | 11%
CC(C)Cn1cc(-c2c[nH]c3nc[nH]c(=O)c23)nn1 [Compound 02F06, O=C1NC=NC=2NC=C(C=3N=NN(C3)CC(C)C)C12] | 1.22%
NC(=O)c1csc(Cn2cc(-c3c[nH]c4nc[nH]c(=O)c34)nn2)n1 [Compound 02F07, S1C(=NC(C(=O)N)=C1)CN2N=NC(C=3C=4C(=O)NC=NC4NC3)=C2] | 91%
O=c1[nH]cnc2[nH]cc(-c3cn(Cc4ncoc4C4CCC4)nn3)c12 [Compound 02F08, O=C1NC=NC=2NC=C(C=3N=NN(C3)CC=4N=COC4C5CCC5)C12] | 61%
O=c1[nH]cnc2[nH]cc(-c3cn(-c4cc(F)ccc4F)nn3)c12 [Compound 02F10, Fc1c(N2N=NC(C=3C=4C(=O)NC=NC4NC3)=C2)cc(F)cc1] | 15%
O=C(NCCn1cc(-c2c[nH]c3nc[nH]c(=O)c23)nn1)C(F)(F)F [Compound 02F11, FC(F)(F)C(=O)NCCN1N=NC(C=2C=3C(=O)NC=NC3NC2)=C1] | 41%
NCCOCCn1cc(-c2c[nH]c3nc[nH]c(=O)c23)nn1 [Compound 02F12, O=C1NC=NC=2NC=C(C=3N=NN(C3)CCOCC[NH3+])C12] | 39%
O=c1[nH]cnc2[nH]cc(-c3cn(CC4CCC=CCC4)nn3)c12 [Compound 02G01, O=C1NC=NC=2NC=C(C=3N=NN(C3)CC4CCC=CCC4)C12] | 71%
O=c1[nH]cnc2[nH]cc(-c3cn(-c4cccc(Cl)c4-c4nnn[nH]4)nn3)c12 [Compound 02G02, Clc1c(c(N2N=NC(C=3C=4C(=O)NC=NC4NC3)=C2)ccc1)C=5[N-]N=NN5] | 15%
O=c1[nH]cnc2[nH]cc(-c3cn(-c4ccc(CCO)cc4)nn3)c12 [Compound 02G03, O=C1NC=NC=2NC=C(C=3N=NN(c4ccc(cc4)CCO)C3)C12] | 15%
O=c1[nH]cnc2[nH]cc(-c3cn(CC4CC(F)(F)C4)nn3)c12 [Compound 02G04, F[C@@]1(F)C[C@@H](CN2N=NC(C=3C=4C(=O)NC=NC4NC3)=C2)C1] | 15%
O=c1[nH]cnc2[nH]cc(-c3cn(Cc4nc5ccccc5o4)nn3)c12 [Compound 02G05, O=C1NC=NC=2NC=C(C=3N=NN(C3)CC=4Oc5c(N4)cccc5)C12] | 38%
COC[C@H](O)Cn1cc(-c2c[nH]c3nc[nH]c(=O)c23)nn1 [Compound 02G06, O=C1NC=NC=2NC=C(C=3N=NN(C3)C[C@@H](O)COC)C12] | 13%
O=c1[nH]cnc2[nH]cc(-c3cn([C@H](CC4CCCCC4)c4ncccn4)nn3)c12 [Compound 02G07, O=C1NC=NC=2NC=C(C=3N=NN(C3)[C@@H](c4ncccn4)CC5CCCCC5)C12] | 30%
CC(C)(C)OC(=O)N[C@@]12CC[C@@H](C[C@H]1n1cc(-c3c[nH]c4nc[nH]c(=O)c34)nn1)C2 [Compound 02G08, O=C(OC(C)(C)C)N[C@@]12[C@H](N3N=NC(C=4C=5C(=O)NC=NC5NC4)=C3)C[C@@H](C1)CC2] | 12%

SMILES | inhibition at 1 µM
Cc1ccccc1Cn1cc(-c2c[nH]c3nc[nH]c(=O)c23)nn1 [Compound 02G09, O=C1NC=NC=2NC=C(C=3N=NN(C3)Cc4c(cccc4)C)C12] | 75%
N#Cc1cnn(CCn2cc(-c3c[nH]c4nc[nH]c(=O)c34)nn2)c1 [Compound 02G10, O=C1NC=NC=2NC=C(C=3N=NN(C3)CCN4N=CC(C#N)=C4)C12] | 38%
O=c1[nH]cnc2[nH]cc(-c3cn([C@@H]4CCCc5cccnc54)nn3)c12 [Compound 02G11, O=C1NC=NC=2NC=C(C=3N=NN(C3)[C@H]4c5ncccc5CCC4)C12] | 18%
N[C@H]1C[C@@H](n2cc(-c3c[nH]c4nc[nH]c(=O)c34)nn2)C1 [Compound 02G12, O=C1NC=NC=2NC=C(C=3N=NN(C3)[C@@H]4C[C@H]([NH3+])C4)C12] | 31%
CNC(=O)CCn1cc(-c2c[nH]c3nc[nH]c(=O)c23)nn1 [Compound 02H01, O=C1NC=NC=2NC=C(C=3N=NN(C3)CCC(=O)NC)C12] | 21%
N#Cc1cc(Cl)ccc1-n1cc(-c2c[nH]c3nc[nH]c(=O)c23)nn1 [Compound 02H02, Clc1cc(C#N)c(N2N=NC(C=3C=4C(=O)NC=NC4NC3)=C2)cc1] | 0%
O=c1[nH]cnc2[nH]cc(-c3cn(Cc4ccc(F)cc4F)nn3)c12 [Compound 02H03, Fc1c(ccc(F)c1)CN2N=NC(C=3C=4C(=O)NC=NC4NC3)=C2] | 49%
O=c1[nH]cnc2[nH]cc(-c3cn(C4CCNCC4)nn3)c12 [Compound 02H04, O=C1NC=NC=2NC=C(C=3N=NN(C3)C4CC[NH2+]CC4)C12] | 28%
O=c1[nH]cnc2[nH]cc(-c3cn(CC(F)(F)c4ccccc4)nn3)c12 [Compound 02H05, FC(F)(c1ccccc1)CN2N=NC(C=3C=4C(=O)NC=NC4NC3)=C2] | 46%
O=c1[nH]cnc2[nH]cc(-c3cn(C[C@H](O)Cc4cccc(F)c4)nn3)c12 [Compound 02H06, Fc1cc(ccc1)C[C@@H](O)CN2N=NC(C=3C=4C(=O)NC=NC4NC3)=C2] | 27%
O=c1[nH]cnc2[nH]cc(-c3cn(CCCN4CCSCC4)nn3)c12 [Compound 02H07, S1CC[NH+](CC1)CCCN2N=NC(C=3C=4C(=O)NC=NC4NC3)=C2] | 59%
COc1ccc(-n2cc(-c3c[nH]c4nc[nH]c(=O)c34)nn2)cc1 [Compound 02H08, O=C1NC=NC=2NC=C(C=3N=NN(c4ccc(OC)cc4)C3)C12] | 9%
C[C@H](c1ccccc1Cl)n1cc(-c2c[nH]c3nc[nH]c(=O)c23)nn1 [Compound 02H09, Clc1c(cccc1)[C@H](N2N=NC(C=3C=4C(=O)NC=NC4NC3)=C2)C] | 44%
O=c1[nH]cnc2[nH]cc(-c3cn([C@H]4CCn5cccc5C4)nn3)c12 [Compound 02H10, O=C1NC=NC=2NC=C(C=3N=NN(C3)[C@@H]4CC=5N(C=CC5)CC4)C12] | 24%
C[C@H](c1ccc(Cl)cc1)n1cc(-c2c[nH]c3nc[nH]c(=O)c23)nn1 [Compound 02H11, Clc1ccc(cc1)[C@H](N2N=NC(C=3C=4C(=O)NC=NC4NC3)=C2)C] | 41%
CN(CCn1cc(-c2c[nH]c3nc[nH]c(=O)c23)nn1)Cc1cccc(F)c1 [Compound 02H12, Fc1cc(ccc1)C[N@H+](CCN2N=NC(C=3C=4C(=O)NC=NC4NC3)=C2)C] | 65%
CS(=O)(=O)c1cc(Cn2cc(-c3c[nH]c4nc[nH]c(=O)c34)nn2)cc(C(F)(F)F)c1 [Compound 03A01, S(=O)(=O)(c1cc(cc(c1)CN2N=NC(C=3C=4C(=O)NC=NC4NC3)=C2)C(F)(F)F)C] | 63%
CN(C)CCn1cc(-c2c[nH]c3nc[nH]c(=O)c23)nn1 [Compound 03A02, O=C1NC=NC=2NC=C(C=3N=NN(C3)CC[NH+](C)C)C12] | 44%
O=C(Cn1cc(-c2c[nH]c3nc[nH]c(=O)c23)nn1)NCc1ccccc1 [Compound 03A03, O=C1NC=NC=2NC=C(C=3N=NN(C3)CC(=O)NCc4ccccc4)C12] | 36%
O=c1[nH]cnc2[nH]cc(-c3cn(-c4ccc(S(F)(F)(F)(F)F)cc4)nn3)c12 [Compound 03A04, S(F)(F)(F)(F)(F)c1ccc(N2N=NC(C=3C=4C(=O)NC=NC4NC3)=C2)cc1] | 16%
O=C1NCCCC[C@H]1n1cc(-c2c[nH]c3nc[nH]c(=O)c23)nn1 [Compound 03A05, O=C1NC=NC=2NC=C(C=3N=NN(C3)[C@H]4C(=O)NCCCC4)C12] | 40%
N#CCC1(Cn2cc(-c3c[nH]c4nc[nH]c(=O)c34)nn2)CC1 [Compound 03A06, O=C1NC=NC=2NC=C(C=3N=NN(C3)CC4(CC#N)CC4)C12] | 65%
